How the values were obtained:
[1] = tested on: Primary neonatal human epithelial keratinocytes (HEKs); assay: BrdU proliferation assay of HEKs with soluble QHREDGS peptide; assay type: cell-based; settings: soluble peptide Low 100 μM, High 650 μM; 8 h BrdU
Experimental: (§1) The effect of the QHREDGS peptide as in the soluble form was assessed on HEKs in vitro. 24- or 96-well plates were coated with 0.05 mg/mL type I collagen (BD Biosciences) in 0.02 N acetic acid overnight and then rinsed once with phosphate buffered saline (PBS) (Lonza). HEKs were seeded in complete EpiLife medium and attached for at least 2 h. 100 μM or 650 μM QHREDGS was supplemented to the EpiLife medium as Low or High dosage, respectively.
HEKs were seeded at a density of 1×10^4 cells/cm^2 in collagen-coated 96-well plates. After 4 h, media was removed and replenished with EpiLife media supplemented with 20 μM bromodeoxyuridine (BrdU) (Sigma Aldrich) in the presence or absence of QHREDGS peptide. After incubating for 8 h, proliferating HEKs were identified by BrdU staining. Briefly, HEKs were fixed with 4% paraformaldehyde (PFA), permeablized with 0.25% triton X, treated with DNase for 30 min at 37° C., and blocked with 5% bovine serum albumin (BSA). The HEKs were then incubated with a rat anti-BrdU antibody (AbD Serotec) overnight at 4° C. followed by an anti-rat TRITC-labelled secondary antibody (Jackson Immuno Research). BrdU-positive cells were counted in 5 randomly chosen fields under 20× magnification and then normalized to the total number of cells labelled by 4′,6-diamidino-2-phenylindole (DAPI) counterstaining.

HEKs [2] = assay: HEK migration on collagen coated surfaces with soluble QHREDGS peptide; assay type: cell-based, human; settings: soluble peptide 100 μM or 650 μM; collagen-coated surface; 24 h
Experimental: as §1
Culture-inserts were purchased from Ibidi® and carefully placed on the chitosan-collagen films in 24-wells. HEKs were seeded in complete EpiLife medium at 0.3-0.4×10^6 cells/mL with 70-100 μL per chamber and allowed to attach for 2 h. The culture-inserts were then carefully lifted and the unattached HEKs were immediately removed by rinsing twice using warm PBS. Basal EpiLife medium was then added to the wells and the wells were imaged every 2 h for 8 h and the next day using the SpectraMax i3 plate reader. Confluent HEK monolayers were wounded (time 0) and maintained for 24 h in EpiLife basal medium with 0.12 mM Ca2+. The wounds were outlined and the area at the various time points was normalized to the initial wound size (time 0). After 24 h, HEKs were fixed with 4% paraformaldehyde.

HEKs [3] = assay: EarlyTox Cell Integrity assay after H2O2 treatment of HEKs with soluble QHREDGS peptide; assay type: cell-based, human; settings: 500 μM H2O2 for 2 h; soluble peptide 100 μM / 650 μM, 2 h pre-conditioning
Experimental: (§2) HEKs were seeded at a sub-confluent density in a 96-well plate for the cell integrity assay or a 24-well plate for Western blot analysis, and serum starved overnight. The HEKs were then pretreated with soluble QHREDGS (100 μM for Low and 650 μM for High) for 2 h. The cells were then exposed to fresh EpiLife basal medium supplemented with 500 μM H2O2 in the presence or absence of QHREDGS peptide. For the cell integrity assay, the cells were stained using the EarlyTox™ Cell Integrity kit (Molecular Devices) after 2 h of H2O2 treatment. For the Western analysis, another set of wells were seeded in parallel for the Ctrl, Low and High conditions and protein samples were collected after 0, 15 min and 2 h of H2O2 treatment.
The EarlyTox™ Cell Integrity Kit (Molecular Devices, R8213) is based on two nuclear dyes: live red dye is cell permeant and marks both live and dead cells (Excitation: 622 nm/Emission: 645 nm); dead green dye is cell impermeant and stains only cells with damaged outer membranes (Excitation: 503 nm/Emission: 526 nm). […] The plate was then incubated at 37° C. for 30 min and imaged using a SpectraMax i3 plate reader (Molecular Devices). The percentage of viable cells after H2O2 treatment on chitosan-collagen films in the presence or absence of QHREDGS peptide was normalized to the viability percentage of non-treated controls on the same coating film condition.

[4] = tested on: Akt and MAPKp42/44 phosphorylation; assay: Western blotting of HEKs under H2O2 stress with soluble QHREDGS peptide; assay type: cell-based, human; settings: 500 μM H2O2, 15 min, soluble peptide 100 μM / 650 μM
Experimental: as §2
Protein was isolated from keratinocytes in the 24-well plate after H2O2 treatment using 60-80 μL Lysis Buffer per well (10× Cell Lysis Buffer, Cell Signaling Technology; complete Mini, EDTA-free protease inhibitor cocktail tablet, Roche; in ddH2O). Proteins were separated by electrophoresis in Novex Tris-Glycine gels (Life technologies) and transferred using the iBlot (Life technologies) to a PVDF iBlot Transfer Stack (Life technologies). Membranes were probed for phospho-p44/42 MAPK (pMAPKp42/44), p44/42 MAPK (MAPKp42/44), phospho-Akt, Akt, or GAPDH as a loading control (Millipore). All primary antibodies were purchased from Cell Signaling unless stated otherwise. […]

QHREDGS [QHREDGS peptide]
percentage of proliferating HEKs (BrdU incorporation) [1]: not affected | HEK migration rate (HEKs [2]): No significant difference | percentage of viable HEKs under oxidative stress (HEKs [3]): significant dose-dependent increase | phosphorylation of Akt and MAPKp42/44 [4]: increased the phosphorylation of Akt and MAPKp42/44 and the increase was dose-dependent

Reference: patent publication US20230233704A1, “HYDROGEL COMPOSITION AND ASSOCIATED METHOD OF USE” (Quthero, Inc., priority 2017, published 2023)
